Consider 21 compounds from the NIST ThermoML archive (doi:10.1016/j.jct.2016.07.017).

This series in a line: activity coefficient (dimensionless); of the first substance listed, at infinite dilution; xn = mol fraction of the nth substance listed. The following applies: 101.33 kPa, Liquid, Chromatography, x1 = 0.

Molecules are shown by their SMILES. ± gives the expanded uncertainty stated by the source.

Turning to `Cc1ccccc1C` [1,2-dimethylbenzene] + CC[N+](C)(CC)CCOC.O=S(=O)([N-]S(=O)(=O)C(F)(F)F)C(F)(F)F, the activity coefficient (318.15 K) was found to be 1.93 ± 0.17; the activity coefficient (328.15 K) was 1.94 ± 0.17; the activity coefficient (338.15 K) was 1.95 ± 0.17; the activity coefficient (348.15 K) stood at 1.96 ± 0.17; the activity coefficient (358.15 K) came out at 1.97 ± 0.17.

`Cc1cccc(C)c1` [1,3-dimethylbenzene] + CC[N+](C)(CC)CCOC.O=S(=O)([N-]S(=O)(=O)C(F)(F)F)C(F)(F)F: the activity coefficient reads like this: (318.15 K) 2.12 ± 0.18; (328.15 K) 2.14 ± 0.18; (338.15 K) 2.14 ± 0.18; (348.15 K) 2.17 ± 0.19; (358.15 K) 2.18 ± 0.19.

For `Cc1ccc(C)cc1` [1,4-dimethylbenzene] + CC[N+](C)(CC)CCOC.O=S(=O)([N-]S(=O)(=O)C(F)(F)F)C(F)(F)F, the activity coefficient reads like this: (318.15 K) 2.12 ± 0.18; (328.15 K) 2.15 ± 0.19; (338.15 K) 2.15 ± 0.19; (348.15 K) 2.17 ± 0.19; (358.15 K) 2.18 ± 0.19.

Consider `C1COCCO1` [1,4-dioxane] + CC[N+](C)(CC)CCOC.O=S(=O)([N-]S(=O)(=O)C(F)(F)F)C(F)(F)F, for which the activity coefficient is 0.66 ± 0.057 (318.15 K); 0.679 ± 0.058 (328.15 K); 0.704 ± 0.06 (338.15 K); 0.723 ± 0.061 (348.15 K); 0.734 ± 0.062 (358.15 K).

For the compound `C=CCCCCCCCC` [1-decene] + CC[N+](C)(CC)CCOC.O=S(=O)([N-]S(=O)(=O)C(F)(F)F)C(F)(F)F, the activity coefficient worked out at 40.4 ± 3.5 (318.15 K); 37.4 ± 3.2 (328.15 K); 34.4 ± 3 (338.15 K); 32.2 ± 2.8 (348.15 K); 29.8 ± 2.6 (358.15 K).

For the compound `C=CCCCCC` [1-heptene] + CC[N+](C)(CC)CCOC.O=S(=O)([N-]S(=O)(=O)C(F)(F)F)C(F)(F)F, the activity coefficient was 13.3 ± 1.2 (318.15 K); 12.6 ± 1.1 (328.15 K); 11.9 ± 1 (338.15 K); 11.4 ± 1 (348.15 K); 10.9 ± 0.9 (358.15 K).

For `C#CCCCCC` [1-heptyne] + CC[N+](C)(CC)CCOC.O=S(=O)([N-]S(=O)(=O)C(F)(F)F)C(F)(F)F, the activity coefficient was 4.47 ± 0.39 (318.15 K); 4.43 ± 0.38 (328.15 K); 4.39 ± 0.38 (338.15 K); 4.35 ± 0.38 (348.15 K); 4.29 ± 0.37 (358.15 K).

On to `C#CCCCC` [1-hexyne] + CC[N+](C)(CC)CCOC.O=S(=O)([N-]S(=O)(=O)C(F)(F)F)C(F)(F)F, for which the activity coefficient came to 3.11 ± 0.27 (318.15 K); 3.11 ± 0.27 (328.15 K); 3.1 ± 0.27 (338.15 K); 3.1 ± 0.27 (348.15 K); 3.08 ± 0.27 (358.15 K).

Turning to `CCC[N+](=O)[O-]` [1-nitropropane] + CC[N+](C)(CC)CCOC.O=S(=O)([N-]S(=O)(=O)C(F)(F)F)C(F)(F)F, the activity coefficient (318.15 K) amounted to 0.78 ± 0.066; the activity coefficient (328.15 K) came out at 0.778 ± 0.065; the activity coefficient (338.15 K) worked out at 0.775 ± 0.065; the activity coefficient (348.15 K) stood at 0.772 ± 0.065; the activity coefficient (358.15 K) worked out at 0.77 ± 0.065.

With `C#CCCCCCC` [1-octyne] + CC[N+](C)(CC)CCOC.O=S(=O)([N-]S(=O)(=O)C(F)(F)F)C(F)(F)F, the activity coefficient reads like this: (318.15 K) 6.47 ± 0.56; (328.15 K) 6.36 ± 0.55; (338.15 K) 6.21 ± 0.54; (348.15 K) 6.11 ± 0.53; (358.15 K) 5.97 ± 0.52.

In the case of `C#CCCC` [1-pentyne] + CC[N+](C)(CC)CCOC.O=S(=O)([N-]S(=O)(=O)C(F)(F)F)C(F)(F)F, the activity coefficient (318.15 K) was 2.15 ± 0.19; the activity coefficient (328.15 K) was 2.17 ± 0.19; the activity coefficient (338.15 K) came to 2.18 ± 0.19; the activity coefficient (348.15 K) was 2.19 ± 0.19; the activity coefficient (358.15 K) is 2.21 ± 0.19.

Consider `CC(C)CC(C)(C)C` [2,2,4-trimethylpentane] + CC[N+](C)(CC)CCOC.O=S(=O)([N-]S(=O)(=O)C(F)(F)F)C(F)(F)F, for which the activity coefficient reads like this: (318.15 K) 25.7 ± 2.2; (328.15 K) 23.8 ± 2.1; (338.15 K) 21.7 ± 1.9; (348.15 K) 21 ± 1.8; (358.15 K) 20 ± 1.7.

For `CCC(C)(C)C` [2,2-dimethylbutane] + CC[N+](C)(CC)CCOC.O=S(=O)([N-]S(=O)(=O)C(F)(F)F)C(F)(F)F, the activity coefficient was 15.1 ± 1.3 (318.15 K); 14 ± 1.2 (328.15 K); 13.3 ± 1.2 (338.15 K); 12.5 ± 1.1 (348.15 K); 11.9 ± 1 (358.15 K).

On to `CCOC(C)(C)C` [2-ethoxy-2-methylpropane] + CC[N+](C)(CC)CCOC.O=S(=O)([N-]S(=O)(=O)C(F)(F)F)C(F)(F)F, for which the activity coefficient (318.15 K) was determined as 6.09 ± 0.53; the activity coefficient (328.15 K) was found to be 5.94 ± 0.51; the activity coefficient (338.15 K) worked out at 5.86 ± 0.51; the activity coefficient (348.15 K) was determined as 5.71 ± 0.49; the activity coefficient (358.15 K) came out at 5.59 ± 0.48.

For `CCCCC(C)=O` [2-hexanone] + CC[N+](C)(CC)CCOC.O=S(=O)([N-]S(=O)(=O)C(F)(F)F)C(F)(F)F, the activity coefficient by setting is: (318.15 K) 1.14 ± 0.09; (328.15 K) 1.15 ± 0.1; (338.15 K) 1.16 ± 0.1; (348.15 K) 1.18 ± 0.1; (358.15 K) 1.19 ± 0.1.

Consider `CCC(C)(C)OC` [2-methoxy-2-methylbutane] + CC[N+](C)(CC)CCOC.O=S(=O)([N-]S(=O)(=O)C(F)(F)F)C(F)(F)F, for which the activity coefficient was 3.87 ± 0.33 (318.15 K); 3.86 ± 0.33 (328.15 K); 3.83 ± 0.33 (338.15 K); 3.8 ± 0.33 (348.15 K); 3.76 ± 0.32 (358.15 K).

As to `COC(C)(C)C` [2-methoxy-2-methylpropane] + CC[N+](C)(CC)CCOC.O=S(=O)([N-]S(=O)(=O)C(F)(F)F)C(F)(F)F, the activity coefficient (318.15 K) was 2.62 ± 0.23; the activity coefficient (328.15 K) is 2.63 ± 0.23; the activity coefficient (338.15 K) came to 2.65 ± 0.23; the activity coefficient (348.15 K) is 2.67 ± 0.23; the activity coefficient (358.15 K) came to 2.67 ± 0.23.

Regarding `CCCC(=O)CC` [3-hexanone] + CC[N+](C)(CC)CCOC.O=S(=O)([N-]S(=O)(=O)C(F)(F)F)C(F)(F)F, the activity coefficient runs as follows: (318.15 K) 1.21 ± 0.1; (328.15 K) 1.22 ± 0.1; (338.15 K) 1.23 ± 0.1; (348.15 K) 1.24 ± 0.1; (358.15 K) 1.25 ± 0.1.

In the case of `CCC(C)CC` [3-methylpentane] + CC[N+](C)(CC)CCOC.O=S(=O)([N-]S(=O)(=O)C(F)(F)F)C(F)(F)F, the activity coefficient (318.15 K) came to 16.1 ± 1.4; the activity coefficient (328.15 K) turned out to be 14.9 ± 1.3; the activity coefficient (338.15 K) was found to be 14 ± 1.2; the activity coefficient (348.15 K) was 13.1 ± 1.1; the activity coefficient (358.15 K) stood at 12.5 ± 1.1.

Regarding `CC(C)=O` [acetone] + CC[N+](C)(CC)CCOC.O=S(=O)([N-]S(=O)(=O)C(F)(F)F)C(F)(F)F, the activity coefficient is, setting by setting: (318.15 K) 0.484 ± 0.045; (328.15 K) 0.491 ± 0.046; (338.15 K) 0.499 ± 0.046; (348.15 K) 0.509 ± 0.047; (358.15 K) 0.518 ± 0.047.

As to `CC#N` [acetonitrile] + CC[N+](C)(CC)CCOC.O=S(=O)([N-]S(=O)(=O)C(F)(F)F)C(F)(F)F, the activity coefficient (318.15 K) came to 0.488 ± 0.045; the activity coefficient (328.15 K) is 0.488 ± 0.045; the activity coefficient (338.15 K) worked out at 0.488 ± 0.045; the activity coefficient (348.15 K) is 0.49 ± 0.045; the activity coefficient (358.15 K) was found to be 0.49 ± 0.045.
